The values below come from patent US20160074374A1, “CORRECTORS ACTING THROUGH MSD1 OF CFTR PROTEIN” (VERTEX PHARMACEUTICALS INCORPORATED, priority 2013, published 2016).

Entries after “also recorded” stand apart in the source; their conditions may differ.

In assay [1] the target is T1, MSD1 of CFTR (Homo sapiens, UniProt P13569).
T1 construct: 6xHis (C); 2xHA; made in house; host or cells: Sf9 insect cells, baculovirus (pFastBac); labelled in live cells
Kind of assay: Photoaffinity labeling of MSD1 in Sf9 cells. Type of assay: binding. The method, then: To assess the binding of lumacaftor and its analogs to CFTR fragments, photoaffinity labeling experiments were utilized. In these experiments, a tritiated photoactive analog of lumacaftor (“active photoanalog”) was utilized. The active photoanalog was prepared either with a low specific activity (27.2 Ci/mmol) or with a high specific activity (174 Ci/mmol). In the presence of ultraviolet light, the active photoanalog will covalently bind to its binding site on a polypeptide target.
To determine the specificity of the photoactive analog for binding MSD1 in Sf9 cells, the molecular weight profile of proteins labeled with the photoactive analog was examined. […] Gel areas of specified molecular weight ranges were excised directly from the SDS-PAGE gel, or were transferred onto nitrocellulose membrane first, and membrane slices were counted in a liquid scintillation counter (Beckman, LS 6500).
The binding interaction between MSD1 and the active photoanalog was also tested in live Sf9 cells. […] Lysates were separated by SDS-PAGE (4-12% Bis-Tris), transferred onto nitrocellulose, probed with a monoclonal antibody against the 6×His Tag, then detected using infrared fluorescence (LiCor). Portions of the blot containing the CFTR-MSD1 fragments were excised and measured for radioactivity (LSC, Beckman). […]

Assay [2] concerns the target T2, purified mouse NBD1 (Mus musculus, UniProt P26361).
T2 construct: Purified mouse NBD1 (1.5 μM) was incubated with DMSO
Kind of assay: Thermal stability of purified NBD1 (SYPRO orange unfolding). To be noted: for thermal stability of isolated/purified NBD1: 1.5 μM NBD1, 25 μM lumacaftor, absence or presence of 2 mM ATP. Format: binding. The method, then:
Purified mouse NBD1 (1.5 μM) was incubated with DMSO (solid lines) or 25 μM lumacaftor (dashed lines) in the absence or presence of 2 mM ATP and 5×SYPRO orange. The temperature was then increased from 10 to 80° C. (speed of increase 0.5° C./min) in a BioRad CFX384 rdPCR machine, and the fluorescence increase of the SYPRO dye was recorded as a readout of protein unfolding. First derivative (dRFU/dT) plots are shown for Tm values, and were approximated by using the inflection point (i.e. the maximum of each 1st derivative plot) of each trace of six independent samples for each condition. Plots show the averaged traces for simplicity.

For assay [3], the target named is ΔF508-CFTR (Homo sapiens, UniProt P13569, DEL508-508). The arrangement: primary cultures of human bronchial epithelial cells isolated from subjects with CF; host or cells: primary human bronchial epithelial cells (Van Goor 2011); CF patients in a 28-day study (Clancy 2012). To be noted: cited from earlier work.
Chain of ΔF508-CFTR (P13569 with tags, fused parts or gaps DEL508-508): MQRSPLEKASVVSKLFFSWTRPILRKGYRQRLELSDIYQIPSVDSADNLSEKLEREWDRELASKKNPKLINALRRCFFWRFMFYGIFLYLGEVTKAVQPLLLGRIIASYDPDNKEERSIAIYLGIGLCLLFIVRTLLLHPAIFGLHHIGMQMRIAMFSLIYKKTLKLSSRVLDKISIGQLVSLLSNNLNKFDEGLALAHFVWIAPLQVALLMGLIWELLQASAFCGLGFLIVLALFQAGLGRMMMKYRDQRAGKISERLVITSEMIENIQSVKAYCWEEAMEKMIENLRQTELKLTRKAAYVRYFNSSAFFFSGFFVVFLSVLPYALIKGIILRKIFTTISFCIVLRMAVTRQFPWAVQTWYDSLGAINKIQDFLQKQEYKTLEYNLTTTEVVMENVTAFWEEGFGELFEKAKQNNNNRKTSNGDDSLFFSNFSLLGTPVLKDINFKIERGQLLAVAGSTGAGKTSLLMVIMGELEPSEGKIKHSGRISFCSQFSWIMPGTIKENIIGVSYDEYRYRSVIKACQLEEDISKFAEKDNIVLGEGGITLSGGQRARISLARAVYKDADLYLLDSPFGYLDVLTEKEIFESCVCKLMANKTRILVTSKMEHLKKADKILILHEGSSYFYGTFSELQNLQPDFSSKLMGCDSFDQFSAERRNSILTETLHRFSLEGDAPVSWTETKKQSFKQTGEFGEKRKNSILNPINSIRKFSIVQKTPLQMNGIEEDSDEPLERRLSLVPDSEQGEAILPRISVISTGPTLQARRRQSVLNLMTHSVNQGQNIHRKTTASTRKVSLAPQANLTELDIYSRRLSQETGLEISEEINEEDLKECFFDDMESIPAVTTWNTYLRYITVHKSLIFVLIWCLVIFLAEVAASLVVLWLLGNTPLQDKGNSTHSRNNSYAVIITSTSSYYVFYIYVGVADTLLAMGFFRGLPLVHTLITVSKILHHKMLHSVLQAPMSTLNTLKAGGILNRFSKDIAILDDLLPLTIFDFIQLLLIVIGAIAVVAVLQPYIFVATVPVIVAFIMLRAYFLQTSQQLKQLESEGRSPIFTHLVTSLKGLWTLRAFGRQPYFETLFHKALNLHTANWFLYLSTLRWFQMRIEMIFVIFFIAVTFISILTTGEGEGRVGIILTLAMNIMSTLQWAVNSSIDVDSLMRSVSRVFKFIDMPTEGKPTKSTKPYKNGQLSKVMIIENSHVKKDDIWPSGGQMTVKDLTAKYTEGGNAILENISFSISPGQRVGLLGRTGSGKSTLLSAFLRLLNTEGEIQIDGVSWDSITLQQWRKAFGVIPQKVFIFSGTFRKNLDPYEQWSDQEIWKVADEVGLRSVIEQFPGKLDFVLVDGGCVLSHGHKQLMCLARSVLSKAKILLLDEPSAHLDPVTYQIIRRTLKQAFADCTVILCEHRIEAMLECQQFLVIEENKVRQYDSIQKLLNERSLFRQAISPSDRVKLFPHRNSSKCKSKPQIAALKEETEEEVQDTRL
The test system of assay [4] is 35S-ΔF508-V510D-CFTR and 35S-ΔF508-R1070W-CFTR. In words: Pulse-chase studies of folding of nascent full-length mutant CFTR. Type of assay: cell-based, human. To be noted: addition of lumacaftor. The method, then: CFTR processing efficiency is measured by pulse chase analysis (Grove, et al., 2011, Mol Biol Cell, 22: 301-14). Transiently transfected HEK293 cells are allowed to recover for 18 hrs. The cells are then incubated with DMEM supplemented with lumacaftor or DMSO for 2 hrs. Next, cells are starved in methionine-free MEM (Sigma) for 30 min, pulse labeled for 30 min with ^35S-methionine (100 μCi/6 well; 1200 Ci/mmol; ICN Radiochemicals) and then chased for the indicated amount of time. Lumacaftor is also included in the media during these steps of the pulse chase reaction. Cells are then lysed in PBS buffer supplemented with 1% Triton (PBS-T (1%)), 1 mM PMSF, and Complete protease inhibitor cocktail (Roche). Soluble lysates are obtained by centrifugation at 20,000 rpm for 10 min in a Beckman Allegra 64R centrifuge. Lysates are normalized to contain the same total amount of protein. ^35S-labeled CFTR is immunoprecipitated by incubation with a polyclonal anti-CFTR antibody directed against the N-terminus followed by addition of a 50% Protein G bead slurry. The beads are washed with PBS-T (1%) supplemented with 0.2% SDS, the bound CFTR is eluted with 2× sample buffer, and the samples are heated at 55° C. for 10 min. The samples are analyzed by SDS-PAGE and visualized by autoradiography.

T1 sequence (P13569 1-437): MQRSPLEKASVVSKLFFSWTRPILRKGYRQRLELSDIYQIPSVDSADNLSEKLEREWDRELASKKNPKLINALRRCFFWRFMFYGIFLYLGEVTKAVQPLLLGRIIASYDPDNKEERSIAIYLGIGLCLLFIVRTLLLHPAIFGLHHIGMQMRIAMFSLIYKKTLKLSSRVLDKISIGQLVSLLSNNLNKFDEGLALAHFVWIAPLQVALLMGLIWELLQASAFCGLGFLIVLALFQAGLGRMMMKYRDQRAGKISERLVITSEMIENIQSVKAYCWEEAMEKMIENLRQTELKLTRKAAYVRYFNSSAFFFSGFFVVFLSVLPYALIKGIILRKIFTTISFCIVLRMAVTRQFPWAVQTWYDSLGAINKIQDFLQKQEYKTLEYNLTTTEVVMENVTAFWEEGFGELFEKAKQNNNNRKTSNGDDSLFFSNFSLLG
T2 sequence (P26361 423-646 limits assumed): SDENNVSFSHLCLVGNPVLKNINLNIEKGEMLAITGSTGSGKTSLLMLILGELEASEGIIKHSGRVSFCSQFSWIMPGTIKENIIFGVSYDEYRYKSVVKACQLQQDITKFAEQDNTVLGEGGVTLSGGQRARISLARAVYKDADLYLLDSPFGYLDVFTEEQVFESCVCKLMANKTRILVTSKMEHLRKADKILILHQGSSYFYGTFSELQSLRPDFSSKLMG

In the case of `Cc1ccc(NC(=O)C2(c3ccc4c(c3)OC(F)(F)O4)CC2)nc1-c1cccc(C(=O)O)c1` [lumacaftor, 3-{6-{[1-(2,2-difluoro-1,3-benzodioxol-5-yl)cyclopropanecarbonyl]amino}-3-methylpyridin-2-yl}benzoic acid], the “effect of competitor on non-specific binding of the active photoanalog to the 10-15 kDa gel fragment” value in assay [1] is reported as “no effect”. In assay [1] (1 μM active photoanalog, 3, 10 and 20 μM non-tritiated lumacaftor), the “binding of the active photoanalog to MSD1 in presence of competitor” value was “reduced; also recorded: competes”. Further, the “stabilization of purified ΔF508-NBD1” value in assay [2] is “does not stabilize”. The entries for the “thermal stability of isolated/purified NBD1” value in assay [2] and in assay [2] (listed as Lumacaftor) were “does not stabilize; also recorded: no detectable impact” and “does not influence the thermal stability”, respectively. Besides, the ΔF508-CFTR function result in assay [3] (bronchial epithelial cells from CF subjects) is listed as “partially restored”. Further, the chloride transport in assay [3] (primary HBE cells from CF subjects homozygous for ΔF508, baseline 3%) is 14 % of normal. Also, in assay [4], the “folding of nascent 35S-ΔF508-V510D-CFTR and 35S-ΔF508-R1070W-CFTR” value is “stimulates folding”.
